Assay [1] relates to 20S proteasome, 26S proteasome and immunoproteasome 20S. Briefly: Cleavage of substrate 1 by 20S, 26S and 20S immunoproteasome. It counts as biochemical, human. Conditions: 20S vs 26S vs 20S immunoproteasome, equimolar concentrations; initial screening. The procedure: (§1) For enzymatic studies, the human 20S proteasome, 26S proteasome, and 20S immunoproteasome were purchased from Boston Biochem (Cambridge, MA, USA). The 20S proteasome concentration for library deconvolution was in the nanomolar range, and this proteasome entity was used for the main study. Deconvolution of the peptide libraries was performed using the iterative solution method. Dimethyl sulfoxide (DMSO) was used as a solvent for preparation of the stock solution (5 mg/mL) for each lyophilized sub-library. This stock solution was diluted ten times using an assay buffer (50 mM Tris/HCl buffer (pH 8.2)) for the 20S and 20Si proteasome, and for 26S, the buffer was supplemented with 40 mM KCl, 2 mM EDTA, 1 mM DTT, 100 µM ATP, and 50 µg/mL bovine serum albumin (BSA). The volume composition of each well of the 96-well plate was: 20 µL library, 160 µL assay buffer, and 20 µL 20S proteasome solution at a concentration of 1.07 × 10^−9 M. Absorbance or fluorescence measurements were performed on a FluoroStar OMEGA multimode microplate reader (BMG, Ortenberg, Germany). Absorbance increases were monitored at 410 nm. The excitation and emission wavelengths were 320 and 450 nm respectively, for the ABZ/ANB. Enzymatic hydrolysis of the peptide was performed in the assay buffer at 37 °C and continued over 60 min.

Assay [2] concerns the target T1, human 20S proteasome, trypsin-like (β2) subunit (Homo sapiens, UniProt P49720+Q99436).
T1 construct: purchased Boston Biochem (Cambridge, MA, USA)
As to the kind of experiment: Kinetic parameters of substrate 1 with human 20S proteasome (allosteric fit). It counts as biochemical. Conditions: for kcat/Km: calculated from the kcat and Km values; for Km / kcat: 20S proteasome 1.07 × 10^−9 M. The protocol: as §1
The procedures to determine the kinetic constants Km and kcat are described below. Increasing concentrations of substrate 1 ranged from 1 × 10^−6 to 2 × 10^−5 M. In parallel, a kinetic assay with the artificial activator SDS at 0.01% was also performed. The data were fitted to an allosteric plot using GraphPad prism v6.0 (GraphPad Software Inc., La Jolla, CA, USA). The specificity constants (kcat/ Km) were calculated from the kcat and Km values. Measurements were performed using a 20S proteasome concentration of 1.07 × 10^−9 M. Three to five measurements were performed for each compound dilution (the systematic error, defined as the standard deviation, never surpassed 20%). The initial hydrolysis rates were used as the amount of enzymatic activity for the tested compounds. All kinetic study details and kinetic parameters have been described elsewhere.

The test system of a further assay is 20S proteasome. Briefly: Inhibitory studies: cleavage of substrate 1 in the presence of selective proteasome inhibitors. It counts as biochemical, human. To be noted: deduced from cleavage with selective inhibitors. An excerpt: A black, 96-well flat-bottomed microplate (Brand GMBH, Wertheim, Germany) was used for the inhibitory studies. Two inhibitors, carfilzomib (a selective inhibitor of the β5 subunit of the 20S proteasome) and epoxomicin, were purchased from Merck (Darmstadt, Germany) and used at final concentrations of 1.15 × 10^−6 M and 5.0 × 10^−5 M, respectively. The β2 inhibitor, PR671A [20], and the β1 inhibitor, NCOO1 [21], were used at a concentration of 5 × 10^−6 M. These reagents were kindly provided by Alexei Kisselev from Dartmouth University (Dartmouth, NH, USA). The concentration of 20S proteasome was 1.07 × 10^−9 M. The buffered proteasome solution was mixed with 10 µL inhibitor solution. This mixture was incubated for 30 min at 37 °C. After this period, the substrate solution was added at a concentration of 1.34 × 10^−5 M, and the fluorescence was measured over time at 320 nm excitation and 450 nm emission wavelengths. All measurements were performed in triplicate.

In assay [3] the test system is 20S proteasome in human urine. Briefly: Proteasome activity in human urine with substrate 1. It counts as biochemical. To be noted: for proteasome activity (cleavage of substrate 1): 80 µL urine, substrate 1.34 × 10^−5 M, 320/450 nm, Mann–Whitney p < 0.0001. The procedure: All urine samples were purchased from St. Vincent de Paul Hospital in Gdynia, Poland (contract no. JN/777/R720/08.11.17). All methods and procedures were performed in accordance with this contract agreement. Participants were informed about the study and sample collection, and their written consent was collected. […] Therefore, the samples were considered unnamed. The samples of human urine were taken during mid-urination and kept for 48 h at −80 °C until required. All samples used for assay development were taken from healthy volunteers (n = 5), and oncological samples were obtained from patients diagnosed with bladder cancer (n = 8).
The urine samples were thawed at room temperature, gently vortexed, and briefly centrifuged (<20 s) to collect the sample at the bottom of the tube. A total of 80 μL urine was transferred to a 96-well microplate and mixed with assay buffer and substrate 1. Proteasome activity was assayed as described earlier. Briefly, 80 µL of urine from healthy volunteers, urine from patients diagnosed with bladder cancer, and bladder cancer urine supplemented by the inhibitor PR671A were mixed with 200 µL of the assayed buffer and 20 µL of the substrate at a concentration of 1.34 × 10^−5 M, and the fluorescence was quantified. An excitation wavelength equal to 320 nm and an emission wavelength of 450 nm were used.
The resulting data were analyzed using Graphpad Prism version 6.0 software (GraphPad Software Inc., La Jolla, CA, USA). All fluorescent measurements were performed in triplicate and represented by the mean ± standard deviation (SD). A two-tailed Mann–Whitney test was applied for the statistical analysis (p < 0.0001).

[4] abbreviates: in the presence of artificial activator SDS 0.01%, pH 8.2, 37 °C.

Results on one substance are retold here after paper PMC7177456, “A Peptidomimetic Fluorescent Probe to Detect the Trypsin β2 Subunit of the Human 20S Proteasome” (International Journal of Molecular Sciences, 2020).

For “ABZ–Dap(O2(Cbz))–Dap(GO1)–Dap(O2(Cbz))–Arg–ANB–NH2 [substrate 1]”, the “selectivity among proteasome entities” value in assay [1] is on record as “selectively proteolyzed by the 20S proteasome”. The kcat/Km in assay [2] (in the presence of artificial activator SDS 0.01%) is 3.23e+07 M⁻¹ s⁻¹; in assay [2] (substrate alone, without SDS), 7.61e+07 M⁻¹ s⁻¹. Also, the Michaelis constant (Km) in assay [2] (setting [4]) was 6.84 ± 0.12 µM; in assay [2] (substrate alone, without SDS, 50 mM Tris/HCl pH 8.2, 37 °C, substrate 1 × 10^−6 to 2 × 10^−5 M, ABZ/ANB fluorescence 320/450 nm, three to five measurements), 3.22 ± 0.02 µM. For the same substance, the kcat in assay [2] (setting [4]) came out at 221 ± 18 s⁻¹; in assay [2] (substrate alone, without SDS, 50 mM Tris/HCl pH 8.2, 37 °C), 245 ± 21 s⁻¹. In assay [2] (substrate alone, characteristic for allosteric enzymes), the “type of cleavage kinetics” value was “sigmoidal kinetics”. For the same substance, the “sub-site selectivity of hydrolysis” value in the assay with 20S proteasome was “hydrolyzed exclusively by the β2 sub-site”. Further, the “fluorescence (in words)” value in assay [3] (bladder cancer urine samples, n = 8) was “fluorescence increase that was observed in all samples”; in assay [3] (healthy urine samples, n = 5), “insignificant background levels of fluorescence”. Moreover, the “proteasome activity (cleavage of substrate 1)” value in assay [3] (bladder cancer urine, n = 8, mean ± SD) was found to be 48.4 ± 28.1; in assay [3] (healthy urine, n = 5, mean ± SD) it was 0.1 ± 0.04.
